One may read the EC50 as the concentration at which the effect is half-maximal.

Experimental findings from US9150568B2, “Compositions and methods for modulating FXR” (NOVARTIS AG, priority 2010, dated 2015) are described below.

Structures are written as SMILES.

For the experiment, the target named is T1, human Farnesoid X Receptor (FXR) ligand binding domain (GST-FXR LBD) (Homo sapiens, UniProt Q96RI1).
T1 construct: purchased Invitrogen
T1 sequence (Q96RI1 193-472 isoform Q96RI1-2): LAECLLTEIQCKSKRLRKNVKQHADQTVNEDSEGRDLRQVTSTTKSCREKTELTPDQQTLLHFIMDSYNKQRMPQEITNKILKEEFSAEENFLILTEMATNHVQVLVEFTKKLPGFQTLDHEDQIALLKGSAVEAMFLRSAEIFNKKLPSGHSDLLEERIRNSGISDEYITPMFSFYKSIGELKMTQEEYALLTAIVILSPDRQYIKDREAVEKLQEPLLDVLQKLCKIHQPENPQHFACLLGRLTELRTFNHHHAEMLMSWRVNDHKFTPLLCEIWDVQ
Briefly: Human GST-FXR LBD co-activator interaction assay (HTRF). The class given is biochemical. The conditions noted are these: GST-FXR LBD / biotin-SRC-1 peptide FRET; response relative to GW4064; read-out: FXR Co-activator interaction assay (EC50). The procedure, abridged:
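FRET (HTRF) read-out of ligand-induced binding between GST-FXR LBD and an SRC-1 peptide, detected with anti-GST cryptate and streptavidin-XL665 in buffer with 50 mM KF. Response % was normalized to DMSO and to the maximal GW4064 response. EC50 came from a four-parameter fit.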
In general terms: TR-FRET usually uses a lanthanide donor and a delayed reading to cut background.
`O=C(O)CNC(=O)c1ccc2nc(N3C4CC[C@H]3C[C@H](OCc3c(-c5ccccc5OC(F)(F)F)noc3C3CC3)C4)sc2c1` [Example 15-1B, 2-(2-(3-((5-cyclopropyl-3-(2-(trifluoromethoxy)phenyl)isoxazol-4-yl)methoxy)-8-azabicyclo[3.2.1]octan-8-yl)benzo[d]thiazole-6-carboxamido)acetic acid]: the EC50 is 0.0006 µM.
Next, `O=C(O)c1cnc(N2C3CC[C@H]2CC(OCc2c(-c4c(F)cccc4F)noc2C2CC2)C3)cc1C(F)(F)F` (stereo partly drawn) [Example 22-16B]: 0.01 µM; `O=C(O)c1ccc(N2C3CC[C@H]2CC(OCc2c(-c4cccnc4C(F)(F)F)noc2C2CC2)C3)nc1` (stereo partly drawn) [Example 30-73]: 0.074 µM.
As for `O=C(O)c1cc(F)c2nc(N3C4CC[C@H]3CC(OCc3c(-c5ccccc5C(F)(F)F)noc3C3CC3)C4)sc2c1` (stereo in doubt) [Example 1-2B, 2-[3-({5-cyclopropyl-3-[2-(trifluoromethyl)phenyl]-1,2-oxazol-4-yl}methoxy)-8-azabicyclo[3.2.1]octan-8-yl]-4-fluoro-1,3-benzothiazole-6-carboxylic acid], the 50% effective concentration (EC50) is 0.00025 µM.
Under `O=C(O)c1ccc(N2C3CC[C@H]2CC(OCc2c(-c4ccccc4Cl)noc2C2CC2)C3)nc1` (stereo partly drawn) [Example 30-21] stands 0.003 µM.
Consider `COC(=O)c1cc(F)c(N2C3CC[C@H]2CC(OCc2c(-c4ccccc4OC(F)(F)F)noc2C2CC2)C3)c(F)c1` (stereo partly drawn) [Example 24-1A], for which the concentration for a half-maximal effect (EC50) turned out to be 0.04 µM.
Next, `O=C(O)c1ccc(N2C3CC[C@H]2CC(OCc2c(-c4ccccc4OC(F)F)noc2C2CC2)C3)nn1` (stereo partly drawn) [Example 22-9B]: 0.017 µM; `Cc1c(N2C3CC[C@H]2CC(OCc2c(-c4ccccc4C(F)(F)F)noc2C2CC2)C3)ccc2oc(C(=O)O)cc12` (stereo partly drawn) [Example 28-12]: 0.0028 µM; `O=C(O)c1cc(F)c2nc(N3C4CC[C@H]3CC(OCc3c(C5CCC6CC6C5)noc3C3CC3)C4)sc2c1` (stereo partly drawn) [Example 29-7]: 0.005 µM.
Under `Cc1ccccc1-c1noc(C2CC2)c1CO[C@H]1C[C@H]2CC[C@@H](C1)N2c1ccc(C(=O)O)c(C)n1` [Example 30-46] stands 0.22 µM; under `COc1cc(C(=O)O)cc2sc(N3[C@@H]4CC[C@H]3C[C@@H](OCc3c(-c5c(Cl)cccc5Cl)noc3C3CC3)C4)nc12` [Example 30-71], 0.0003 µM.
Under `COC(=O)c1cccc(N2C3CC[C@H]2CC(OCc2c(-c4ccccc4OC(F)F)noc2C2CC2)C3)n1` (stereo partly drawn) [Example 22-3] stands 0.01 µM; under `O=C(O)c1nsc2cc(N3C4CC[C@H]3CC(OCc3c(-c5ccccc5OC(F)(F)F)noc3C3CC3)C4)c(F)cc12` (stereo partly drawn) [Example 28-23], 0.0005 µM.
In the case of `COc1cc(C(=O)O)cc2sc(N3C4CC[C@H]3C[C@H](OCc3c(C5CCCCC5)noc3C3CC3)C4)nc12` [Example 9-2], the EC50 is 0.011 µM.
As to `O=C(O)c1cc(F)c2nc(N3C4CC[C@H]3CC(OCc3c(C5CCCCC56CC6)noc3C3CC3)C4)sc2c1` (stereo partly drawn) [Example 29-6], the EC50 worked out at 0.002 µM.
Regarding `COC(=O)c1cc(F)c(N2C3CC[C@H]2CC(OCc2c(-c4ccccc4C(F)(F)F)noc2C2CC2)C3)c(F)c1` (stereo partly drawn) [Example 25-2A], the EC50 is 0.42 µM.
Under `O=C(O)c1cnc(N2[C@@H]3CC[C@H]2C[C@@H](OCc2c(-c4c(F)cccc4F)noc2C2CC2)C3)cn1` [Example 22-15B] stands 0.028 µM; under `Cc1cc(C(=O)O)nc(N2C3CC[C@H]2CC(OCc2c(-c4ccccc4OC(F)F)noc2C2CC2)C3)n1` (stereo partly drawn) [Example 22-8], 0.005 µM; under `COC(=O)c1cc(C)nc(N2C3CC[C@H]2C[C@H](OCc2c(-c4ccccc4OC(F)(F)F)noc2C2CC2)C3)n1` [Example 18-7A], 0.018 µM.
Under `COC(=O)c1cnc(N2C3CC[C@H]2CC(OCc2c(-c4ccccc4OC(F)F)noc2C2CC2)C3)c(C)c1` (stereo partly drawn) [Example 22-7A] stands 0.01 µM; under `O=C(O)c1cc(C2CC2)nc(N2C3CC[C@H]2CC(OCc2c(-c4ccccc4C(F)(F)F)noc2C2CC2)C3)n1` (stereo partly drawn) [Example 30-43], 0.0046 µM.
